PMC7794544, “Microbial production of multiple short-chain primary amines via retrobiosynthesis” (Nature Communications, 2021)

What was measured:
VlmD [1] = target: T1, VlmD (Streptomyces viridifaciens, UniProt Q84F32); test: HPLC (OPA derivatization) of iso-butylamine formed; LC-MS confirmation; format: biochemical; conditions: 1 mM substrate, 0.1 mM PLP, 150 ug/mL enzyme, 50 mM potassium phosphate pH 7.5, 37 °C, 2 h
T1 construct: N-terminal His6 tag, codon-optimised gene in pET-22b(+), E. coli BL21(DE3), Talon resin

VlmD [2] = target: T1, VlmD; test: HPLC (OPA derivatization) of n-butylamine formed; LC-MS confirmation; format: biochemical; conditions: 1 mM substrate, 0.1 mM PLP, 150 ug/mL enzyme, 50 mM potassium phosphate pH 7.5, 37 °C, 2 h

T1 sequence (Q84F32 entry or part of it): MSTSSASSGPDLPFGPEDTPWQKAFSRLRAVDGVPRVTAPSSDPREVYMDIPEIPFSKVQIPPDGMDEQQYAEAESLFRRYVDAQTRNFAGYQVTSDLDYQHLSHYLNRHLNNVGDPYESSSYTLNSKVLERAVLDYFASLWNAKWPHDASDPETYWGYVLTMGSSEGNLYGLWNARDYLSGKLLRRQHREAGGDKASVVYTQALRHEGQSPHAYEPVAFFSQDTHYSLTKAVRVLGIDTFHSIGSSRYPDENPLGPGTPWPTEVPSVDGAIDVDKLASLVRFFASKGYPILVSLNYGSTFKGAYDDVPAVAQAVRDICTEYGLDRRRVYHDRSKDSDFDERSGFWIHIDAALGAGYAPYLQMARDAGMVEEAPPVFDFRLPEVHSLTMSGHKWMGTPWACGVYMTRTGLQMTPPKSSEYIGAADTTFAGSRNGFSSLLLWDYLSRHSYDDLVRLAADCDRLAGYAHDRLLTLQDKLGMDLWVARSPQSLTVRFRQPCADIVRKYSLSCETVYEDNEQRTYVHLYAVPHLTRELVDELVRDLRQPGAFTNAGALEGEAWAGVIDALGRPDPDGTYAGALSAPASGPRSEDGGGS

Row | Structure (SMILES) | HPLC (OPA derivatization) of iso-butylamine formed; LC-MS confirmation (VlmD [1]) | HPLC (OPA derivatization) of n-butylamine formed; LC-MS confirmation (VlmD [2])
1 | CC(C)[C@H](N)C(=O)O [L-valine] | VlmD consistently showed activities toward L-valine, L-leucine, and L-isoleucine as in the previous study | –
2 | CCC[C@H](N)C(=O)O [L-norvaline] | – | VlmD showed relatively high activity toward L-2-aminobutyrate, L-norvaline, L-valine
